{
  "source": "patent US20150065421A1",
  "about": "“BASAL INSULIN THERAPY” (SANOFI, priority 2012, published 2015)",
  "type_in_all_cases": "in vivo, human",
  "key": {"[1]": {"test_system": "people at high risk for vascular disease with either IFG, IGT, or early type 2 diabetes", "test": "ORIGIN trial: blood triglyceride and cholesterol change", "conditions": "glargine group"}, "[2]": {"test_system": "people at high risk for vascular disease with either IFG, IGT, or early type 2 diabetes", "test": "ORIGIN trial: cardiovascular, mortality and cancer outcomes", "from_the_text": "The ORIGIN study was an international, multicenter, randomized, open-label (for insulin glargine versus standard care), double-blind (for omega-3 PUFA versus placebo), 2×2 factorial design study to evaluate whether patients with IGT, IFG, or early T2DM, who were at high risk for macrovascular events, could be safely treated with insulin glargine and omega-3 PUFA, and if either insulin glargine-mediated normoglycemia and/or omega-3 PUFA reduce or prevent CV morbidity and/or mortality. Patients were randomized to either receive insulin glargine treatment as a titrated regimen which targeted fasting plasma glucose (FPG) of 95 mg/dL or standard care according to current guidelines for dysglycemia accompanied by appropriate lifestyle modifications. Patients were also independently randomized to receive either ethyl esters of omega-3 PUFA or matching placebo.\nPatients were to be randomly assigned to receive either insulin glargine treatment or standard care for their dysglycemia. Patients randomized to the insulin glargine group received Lantus® (insulin glargine 100 U/mL solution) once daily (QD) by subcutaneous (SC) injection in a titrated regimen targeting an FPG of […] (5.3 mmol/L). Nondiabetic patients randomized to standard care were followed for the development of diabetes, and were encouraged to continue to modify diet and physical activity levels. Blood glucose management of diabetic patients (or nondiabetic patients who developed diabetes during the study) randomized to standard care was to be performed according to current (at that time) guidelines. All patients were to be encouraged to appropriately modify their lifestyle.\nORIGIN was an international randomized factorial trial of the effect of titrated basal insulin therapy versus standard care and of omega 3 fasty acid supplements versus placebo on incident CV outcomes. Results of the omega 3 fatty acid arm are reported separately (REF). […] The HbA1c level of people with prior diabetes had to be low enough to minimize the likelihood that insulin would be needed to maintain glycemic control during follow-up if allocated to standard care. Key exclusion criteria included unwillingess or an inability to inject insulin or do capillary glucose testing, a clear indication for, or intolerance to insulin or omega 3 fatty acids, unwillingness to stop thiazolidinediones if allocated to glargine, heart failure, or coronary artery bypass surgery within the prior 4 years with no intervening CV event. The study was approved by each site's ethics committee and all participants provided written informed consent.\n(§1) Participants were asked to self-administer daily subcutaneous saline injections and to check their capillary glucose levels during a 10 day run-in period. Adherent participants were then provided with lifestyle advice and randomly allocated to either insulin glargine (Lantus™) or standard approaches to glycaemic control. Participants allocated to insulin glargine who were also taking a thiazolidinedione stopped that medication at the time of randomization; otherwise the insulin glargine was added to their glycemic regimen. These participants were instructed to inject insulin glargine in the evening, starting at 2, 4 or 6 units (depending on their initial FPG) and to increase the dose at least once per week targeting a self-measured FPG level ≦5.3 mmol/l (95 mg/dl) and ≧4 mmol/l (72 mg/dl). […] If participants developed uncontrolled hyperglycemia, investigators were permitted to add rapid-acting insulin. No other glucose-lowering medication could be added or increased. FPG levels were measured in the local laboratory at every visit and the results were regularly reviewed along with the dose of insulin to ensure that insulin was being effectively trirated. People not diagnosed with diabetes by the time of the penultimate study visit down-titrated insulin glargine by 10 units per day and stopped any metformin that was prescribed.\nThere were 2 co-primary composite CV outcomes. […]"}, "[3]": {"test_system": "participants without diabetes at randomization (IFG and/or IGT)", "test": "ORIGIN trial: new type 2 diabetes in participants without baseline diabetes (oral glucose tolerance tests)", "from_the_text": "as §1\nThere were 2 co-primary composite CV outcomes. The first was CV death, non-fatal MI or non-fatal stroke, and the second was a composite of any of these events or a revascularization procedure or hospitalization for heart failure. Secondary outcomes included a composite microvascular outcome comprising a doubling of serum creatinine from baseline, progression of albuminuria category from normoalbuminuria or microalbuminuria to microalbuminuria or overt nephropathy, renal replacement therapy, renal death, retinal photocoagulation or vitrectomy for retinopathy. They also included new type 2 diabetes developing by the time of the 1st post-trial oral glucose tolerance test in participants without baseline diabetes, and all-cause mortality. Other outcomes included incident cancers, CV hospitalizations, and angina. Cardiovascular and cancer outcomes were reviewed by adjudicators masked to treatment allocation. Episodes of hypoglycaemia since the prior visit were recorded at each visit. Symptomatic hypoglycemia was classified as confirmed if a concomitant recorded capillary glucose level was <3 mmol/L (54 mg/dL). Severe hypoglycemia was defined as hypoglycemia that required assistance plus either prompt recovery with glucose or glucagon or a documented capillary glucose ≦2.0 (36 mg/dL). New diabetes was diagnosed if 2 consecutive FPG levels within a 4-month period were ≧7 mM (126 mg/dL) during the trial; a diagnosis of diabetes was made by a physician and a pharmacologic antidiabetic agent was being taken and there was evidence of either a FPG ≧7 mM (126 mg/dL) or any glucose value ≧11.1 mM (200 mg/dL); either 1 or more capillary glucose levels were ≧11.1 mM (200 mg/dl) and a lab-measured FPG was ≧7 mmol/l (126 mg/dl) or a lab measured random glucose level was ≧11.1 mM (200 mg/dl) during down-titration of glargine insulin; or any FPG was ≧7 mM (126 mg/dl) or 2 hour plasma glucose was ≧11.1 mM (200 mg/dl) during the first oral glucose tolerance test.\nData were analyzed using SAS (version 9.1 for Solarus) according to an intention-to-treat approach described in the protocol and a predefined statistical analysis plan. […] Baseline characteristics were summarized using means and standard deviatons, medians and interquartile ranges, or counts and percentages as appropriate. Time-to-event curves were constructed using product limit estimation and compared using stratified log-rank tests. Hazard ratios for each outcome were calculated using Cox regression models adjusted for the factorial allocation, baseline diabetes status and a history of a prior CV event before randomization as described in the protocol. […]"}, "[4]": {"conditions": "glargine group, 6-7 years exposure, p=0.02 vs standard care"}, "[5]": {"conditions": "insulin glargine group, median follow-up 6.2 years"}, "[6]": {"conditions": "insulin glargine vs standard care"}},
  "data": [
    {"substance": "(Gly A21) Arg (B31) Arg (B32) human insulin [insulin glargine]", "values": [
      {"measurement": "change of triglyceride concentration in the blood", "setting": "[1]; P<0.001 vs standard care", "value": "−0.21 (0.03)"},
      {"measurement": "Total cholesterol change from baseline to end-of-study", "setting": "[1]; p 0.044 vs standard care", "value": -0.41, "unit": "mmol/L"},
      {"measurement": "patients who developed a new angina (number)", "setting": "[2]; [4]", "value": 100, "unit": "patients"},
      {"measurement": "patients who developed a new angina (percent)", "setting": "[2]; [4]", "value": 1.6, "unit": "%"},
      {"measurement": "incidence of the composite outcome of nonfatal MI, nonfatal stroke or CV death (first co-primary outcome)", "setting": "[2]; [5]", "value": "2.94 /100 person-years"},
      {"measurement": "incidence of the second co-primary outcome (first plus revascularization or heart failure hospitalization)", "setting": "[2]; [5]", "value": "5.53 /100 person-years"},
      {"measurement": "incidence of any cancer or cancer death, difference to standard care", "setting": "[2]; [6]", "value": "no difference"},
      {"measurement": "mortality, difference to standard care", "setting": "[2]; [6]", "value": "no statistically significant difference"},
      {"measurement": "adjusted HR, first co-primary outcome", "setting": "[2]; insulin glargine vs standard care, 95% CI 0.88, 1.12, P=0.9", "value": 0.99},
      {"measurement": "adjusted HR, second co-primary outcome", "setting": "[2]; insulin glargine vs standard care, 95% CI 0.91, 1.10, P=0.99", "value": 1.00},
      {"measurement": "reduction of incidence of new diabetes including suspected cases", "setting": "[3]; confirmed plus suspected, unconfirmed cases", "value": 30, "unit": "%"},
      {"measurement": "OR for protocol-defined new diabetes", "setting": "[3]; glargine vs standard care, 95% CI 0.58, 0.92, P=0.007", "value": 0.73},
      {"measurement": "OR for new diabetes after 2nd OGTT", "setting": "[3]; glargine vs standard care, 95% CI 0.64, 1.00, P=0.052", "value": 0.80},
      {"measurement": "incidence of new diabetes including suspected cases", "setting": "[3]; insulin glargine group", "value": 35, "unit": "%"},
      {"measurement": "total rate of diabetes after repeated (2nd) OGTT", "setting": "[3]; insulin glargine group, median 100 days after insulin was stopped", "value": 30, "unit": "%"},
      {"measurement": "participants developing protocol-defined diabetes", "setting": "[3]; insulin glargine group, up to 1st post-trial OGTT", "value": 25, "unit": "%"},
      {"measurement": "less likely to develop protocol-defined diabetes than standard care participants", "setting": "[3]; up to 1st post-trial OGTT", "value": 27, "unit": "%"}
    ]}
  ]
}
